Measured values as given in ChEMBL document CHEMBL1123887, “Fluoro ketone containing peptides as inhibitors of human renin” (J Med Chem, 1987).
pKi: −log10 of the molar value. Numbered stars: 1 amine (or outer) side, 2 acyl side, 3 side chain; on linkers, the order of the positions; unused ones are H or OH. Square brackets hold non-standard residues; d marks the D form. Peptide text beside a SMILES is read from it. * marks the point of attachment. X2 = CC(C)C[C@H](N[*:1])[C@@H](O)C(F)(F)C(=O)[*:2]; X1 = CC(C)C[C@H](N[*:1])C(=O)C(F)(F)C(=O)[*:2]; X3 = CC(C)C[C@H](N[*:1])C(=O)CC(=O)[*:2]; Sta = CC(C)C[C@H](N)[C@@H](O)CC(=O)O; Boc = CC(C)(C)OC(=O)*

Each compound was assayed against T1, Renin (Homo sapiens, UniProt P00797) (assay: Compound was evaluated for inhibitory activity against human kidney renin).
T1 sequence (P00797 whole entry): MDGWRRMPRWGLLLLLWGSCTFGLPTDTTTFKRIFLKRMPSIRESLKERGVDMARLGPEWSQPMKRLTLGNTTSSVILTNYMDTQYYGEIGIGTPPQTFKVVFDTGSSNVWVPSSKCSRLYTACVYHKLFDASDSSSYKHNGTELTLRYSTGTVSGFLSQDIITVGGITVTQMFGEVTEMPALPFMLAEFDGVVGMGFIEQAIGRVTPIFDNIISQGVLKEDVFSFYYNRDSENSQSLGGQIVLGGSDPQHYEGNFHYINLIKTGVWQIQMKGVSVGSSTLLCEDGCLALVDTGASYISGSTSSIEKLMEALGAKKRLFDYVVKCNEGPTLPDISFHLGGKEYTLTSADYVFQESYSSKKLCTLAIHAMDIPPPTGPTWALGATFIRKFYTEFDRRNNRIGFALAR
Type: tissue-based

Structure (SMILES)	pKi
CC(C)C[C@H](NC(=O)C(F)(F)[C@H](O)[C@H](CC(C)C)NC(=O)[C@@H](/C=C/[C@H](Cc1ccccc1)NC(=O)OC(C)(C)C)Cc1ccccc1)C(=O)N[C@@H](Cc1ccccc1)C(N)=O	4.92
COC(=O)[C@@H](/C=C/[C@H](CC(C)C)NC(=O)C(F)(F)C(=O)[C@H](CC(C)C)NC(=O)[C@H](Cc1ccccc1)NC(=O)[C@H](Cc1ccccc1)NC(=O)OC(C)(C)C)Cc1ccccc1	5.92
CC(C)C[C@H](NC(=O)C(F)(F)[C@H](O)[C@H](CC(C)C)NC(=O)[C@H](Cc1ccccc1)NC(=O)[C@H](Cc1ccccc1)NC(=O)OC(C)(C)C)C(=O)N[C@@H](Cc1ccccc1)C(N)=O (Boc-FF[X2]LF-NH2)	6.92

More lines, in order of rising pKi, values ahead:

pKi	Structure (SMILES)
4.80	COC(=O)[C@@H](/C=C/[C@H](CC(C)C)NC(=O)C(F)(F)[C@H](O)[C@H](CC(C)C)NC(=O)[C@H](Cc1ccccc1)NC(=O)[C@H](Cc1ccccc1)NC(=O)OC(C)(C)C)Cc1ccccc1
6.81	CC(C)C[C@H](NC(=O)[C@H](Cc1ccccc1)NC(=O)[C@H](Cc1ccccc1)NC(=O)OC(C)(C)C)C(=O)CC(=O)N[C@@H](CC(C)C)C(=O)N[C@@H](Cc1ccccc1)C(N)=O (Boc-FF[X3]LF-NH2)
7.28	CC(C)C[C@H](NC(=O)C[C@H](O)[C@H](CC(C)C)NC(=O)[C@H](Cc1ccccc1)NC(=O)[C@H](Cc1ccccc1)NC(=O)OC(C)(C)C)C(=O)N[C@@H](Cc1ccccc1)C(N)=O (Boc-FF[Sta]LF-NH2)
8.15	CC(C)C[C@H](NC(=O)C(F)(F)C(=O)[C@H](CC(C)C)NC(=O)[C@H](Cc1ccccc1)NC(=O)[C@H](Cc1ccccc1)NC(=O)OC(C)(C)C)C(=O)N[C@@H](Cc1ccccc1)C(N)=O (Boc-FF[X1]LF-NH2)
